# Laboratory results taken from patent US20230346670A1, “Prebiotic Oral Care Compositions and Methods” (Colgate-Palmolive Company, priority 2020, published 2023).
# Marks after values point to notes of the source that are not given here.
# Legend:
# Type in all cases: cell-based
# multi-species biofilms = test: Organic acid levels in supernatant of multi-species biofilms (ion chromatography); conditions: >0 production, <0 consumption, n = 3
# Description: (§1) Biofilms are grown vertically on Calcium Deficient Hydroxyapatite (CAD-HA) disks (Hitemco Medical, Old Bethpage, USA) using the Amsterdam Active Adhesion model. Biofilms are allowed to establish during 24 h (37° C., 170 rpm) under microaerophilic conditions (6% O2, 7% CO2, 7% H2, 80% N2). After this 24 h, disks are rinsed 3 times a day for 3 minutes (RT, 250 rpm), for 3 consecutive days, by transferring the lid containing the disks to a new 24-well plate containing 2 mL/well of the appropriate substrate solution. As a negative control, PBS (pH 5.7) without substrate supplementation is used.
# Levels of organic acids in the filter sterilized supernatant of the multi-species biofilms are measured using a 761 Compact Ion Chromatograph (Metrhohm, Switzerland) with a Metrosep Organic acids Guard/4.6 guard column. The supernatants from the substrate-treated multi-species biofilms are analyzed to gain more insight into the influence of the substrates on organic acid consumption/production.
# [1] = test system: F. nucleatum virulence genes; test: Virulence gene expression in multi-species biofilm (SYBR RT-qPCR); conditions: relative to control = 1, 2^-ΔΔCt, n = 3
# Description: as §1
# (§2) The virulence of the substrate-treated multi-species biofilms are evaluated by analyzing the relative expression of 33 genes that are recognized as being related to some form of virulence and from 4 periodontal pathogens.
# (§3) Expression of bacterial virulence genes is analyzed through SYBR RT-qPCR and normalized for bacterial housekeeping gene expression. […] These effects are illustrated in Tables 6a and 6b:
# Note, for Table 6c, fold changes in virulence gene expression are determined relative to the control condition through the 2^^-ΔΔCt method and are shown as the geometric mean (C.I.) (n = 3) of the 2^^-ΔΔCt values. All substrates are dissolved in PBS at a concentration of 1 M (upper part) or 1%(w/v) (lower part). Values between 0 and 1 represent relative downregulation, values >1 represent relative upregulation. […] NADG: N-acetyl-D-glucosamine; C.I.: 95% confidence interval.
# [2] = test system: P. intermedia virulence genes; test: as above; conditions: relative to control = 1
# Description: as §1, §2, §3
# Note, for Table 6d, fold changes in virulence gene expression are determined relatively to the control condition through the 2^^-ΔΔCt method and are shown as the geometric mean (C.I.) (n = 3) of the 2^^-ΔΔCt values. All substrates are dissolved in PBS at a concentration of 1 M (upper part) or 1%(w/v) (lower part). Values between 0 and 1 represent relative downregulation, values >1 represent relative upregulation. […] NADG: N-acetyl-D-glucosamine; C.I.: 95% confidence interval.
# [3] = test system: human oral keratinocytes (HOK-18A); test: Inflammatory mediator gene expression in keratinocytes exposed to substrate-treated biofilms (SYBR RT-qPCR); conditions: for fold change in IL-1β gene expression, geometric mean (C.I.) / fold change in IL-6 gene expression, geometric mean (C.I.) / fold change in IL-8 gene expression, geometric mean (C.I.) / fold change in MMP-8 gene expression, geometric mean (C.I.) / fold change in TNF-α gene expression, geometric mean (C.I.): relative to control, n = 3
# Description: Cultures of immortalized human oral keratinocytes (HOK-18A) are grown. […] The IL-8 levels in the cellular supernatant are determined as well. RNA is converted to cDNA and relative expression of inflammatory mediator genes is determined as described above with respect to the cellular housekeeping gene β-actin.
# In HOKs exposed to substrate-treated (substrate concentrations of […]) multi-species biofilms, there are mostly decreases in inflammatory mediator gene expression as measured via SYBR RT-qPCR, the results of which are detailed in Table 7:
# Fold changes in inflammatory mediator gene expression from human oral keratinocytes (HOK-18A) exposed to substrate-treated multi-species biofilms are determined relatively to the control through the 2^^-ΔΔCt method and are shown as the geometric mean (C.I.) (n = 3) of the 2^^-ΔΔCt values. All substrates are dissolved in PBS at a concentration of 1 M (upper part) or 1%(w/v) (lower part). Values between 0 and 1 represent relative downregulation, values >1 represent relative upregulation.
# [4] = substrate 1 M, listed as α-D-lactose
# [5] = lower part of Table 6d, head prints 1 M (lower part 1%(w/v))
# [6] = upper part of Table 6d, substrate 1 M, n = 3
# [7] = HOK-18A exposed to biofilms treated with substrate 1% (w/v)
# [8] = HOK-18A exposed to biofilms treated with substrate 1 M
smiles,measurement,setting,value
"OC[C@H]1O[C@@H](O[C@H]2[C@H](O)[C@@H](O)[C@@H](O)O[C@@H]2CO)[C@H](O)[C@@H](O)[C@H]1O [D-lactose, α-D-lactose]","acetate level in biofilm supernatant, mean ± SD",multi-species biofilms; substrate 1% (w/v),367 ± 33 mg/L
same,"butyrate level in biofilm supernatant, mean ± SD",multi-species biofilms; substrate 1% (w/v),2061 ± 121 mg/L
same,"formate level in biofilm supernatant, mean ± SD",multi-species biofilms; substrate 1% (w/v),3929 ± 253 mg/L
same,"lactate level in biofilm supernatant, mean ± SD",multi-species biofilms; substrate 1% (w/v),-125 ± 0 mg/L
same,"propionate level in biofilm supernatant, mean ± SD",multi-species biofilms; substrate 1% (w/v),2140 ± 141 mg/L
same,"acetate level in biofilm supernatant, mean ± SD",multi-species biofilms; substrate 1 M,881 ± 73^∗ mg/L
same,"butyrate level in biofilm supernatant, mean ± SD",multi-species biofilms; substrate 1 M,0±0^∗ mg/L
same,"formate level in biofilm supernatant, mean ± SD",multi-species biofilms; substrate 1 M,84 ± 9^∗ mg/L
same,"lactate level in biofilm supernatant, mean ± SD",multi-species biofilms; substrate 1 M,3791 ± 169^∗ mg/L
same,"propionate level in biofilm supernatant, mean ± SD",multi-species biofilms; substrate 1 M,1306 ± 175^∗ mg/L
same,"acetate level in biofilm supernatant, mean ± SD",multi-species biofilms; [4],881 ± 73 mg/L
same,"butyrate level in biofilm supernatant, mean ± SD",multi-species biofilms; [4],0 ± 0 mg/L
same,"formate level in biofilm supernatant, mean ± SD",multi-species biofilms; [4],84 ± 9 mg/L
same,"lactate level in biofilm supernatant, mean ± SD",multi-species biofilms; [4],3791 ± 169 mg/L
same,"propionate level in biofilm supernatant, mean ± SD",multi-species biofilms; [4],1306 ± 175 mg/L
same,"fold change in ABC transp. perm. (ABC transporter permease) expression, geometric mean (95% C.I.)",[1]; substrate 1% (w/v),0.25 (0.08-0.78)^∗ fold
same,"fold change in EF-G expression, geometric mean (95% C.I.)",[1]; substrate 1% (w/v),0.13 (0.03-0.51)^∗ fold
same,"fold change in but. -coA transf. (butyrate-acetoacetate CoA-transferase) expression, geometric mean (95% C.I.)",[1]; substrate 1% (w/v),0.57 (0.40-0.83) fold
same,"fold change in hemin receptor expression, geometric mean (95% C.I.)",[1]; substrate 1% (w/v),0.17 (0.03-0.94)^∗ fold
same,"fold change in hemolysin expression, geometric mean (95% C.I.)",[1]; substrate 1% (w/v),1.00 (0.60-1.68) fold
same,"fold change in ompA expression, geometric mean (95% C.I.)",[1]; substrate 1% (w/v),1.13 (0.58-2.19) fold
same,"fold change in transposase expression, geometric mean (95% C.I.)",[1]; substrate 1% (w/v),1.26 (0.51-3.13) fold
same,"fold change in ABC transp. perm. (ABC transporter permease) expression, geometric mean (95% C.I.)",[1]; substrate 1 M,16.97 (5.93-48.61)^∗ fold
same,"fold change in EF-G expression, geometric mean (95% C.I.)",[1]; substrate 1 M,1.54 (0.94-2.53) fold
same,"fold change in but. -coA transf. (butyrate-acetoacetate CoA-transferase) expression, geometric mean (95% C.I.)",[1]; substrate 1 M,3.88 (0.87-17.43)* fold
same,"fold change in hemin receptor expression, geometric mean (95% C.I.)",[1]; substrate 1 M,36.87 (17.27-78.74)^∗ fold
same,"fold change in hemolysin expression, geometric mean (95% C.I.)",[1]; substrate 1 M,6.34 (1.36-29.47)^∗ fold
same,"fold change in ompA expression, geometric mean (95% C.I.)",[1]; substrate 1 M,1.26 (0.79-2.03) fold
same,"fold change in transposase expression, geometric mean (95% C.I.)",[1]; substrate 1 M,172.87 (147.10-203.20)^∗ fold
same,"fold change in DnaJ expression, geometric mean (95% C.I.)",[2]; [5],0.29 (0.18-0.47)^∗ fold
same,"fold change in DnaK expression, geometric mean (95% C.I.)",[2]; [5],1.16 (0.55-2.44) fold
same,"fold change in ECF expression, geometric mean (95% C.I.)",[2]; [5],0.26 (0.12-0.58)^∗ fold
same,"fold change in GroES expression, geometric mean (95% C.I.)",[2]; [5],0.91 (0.41-2.03) fold
same,"fold change in HtpG expression, geometric mean (95% C.I.)",[2]; [5],0.40 (0.15-1.07)^∗ fold
same,"fold change in KpsD expression, geometric mean (95% C.I.)",[2]; [5],0.72 (0.39-1.35) fold
same,"fold change in adpc expression, geometric mean (95% C.I.)",[2]; [5],0.41 (0.30-0.55) fold
same,"fold change in clpB expression, geometric mean (95% C.I.)",[2]; [5],0.85 (0.23-3.13) fold
same,"fold change in inpA expression, geometric mean (95% C.I.)",[2]; [5],0.52 (0.41-0.66)^∗ fold
same,"fold change in phg expression, geometric mean (95% C.I.)",[2]; [5],0.39 (0.19-0.77)^∗ fold
same,"fold change in DnaJ expression, geometric mean (95% C.I.)",[2]; [6],0.25 (0.05-1.25)^∗ fold
same,"fold change in DnaK expression, geometric mean (95% C.I.)",[2]; [6],0.34 (0.28-0.42)^∗ fold
same,"fold change in ECF expression, geometric mean (95% C.I.)",[2]; [6],1.72 (0.56-5.25) fold
same,"fold change in GroES expression, geometric mean (95% C.I.)",[2]; [6],0.29 (0.09-0.91)^∗ fold
same,"fold change in HtpG expression, geometric mean (95% C.I.)",[2]; [6],0.19 (0.12-0.31)^∗ fold
same,"fold change in KpsD expression, geometric mean (95% C.I.)",[2]; [6],0.62 (0.21-1.87) fold
same,"fold change in adpc expression, geometric mean (95% C.I.)",[2]; [6],0.30 (0.23-0.39)^∗ fold
same,"fold change in clpB expression, geometric mean (95% C.I.)",[2]; [6],0.38 (0.08-1.75)^∗ fold
same,"fold change in inpA expression, geometric mean (95% C.I.)",[2]; [6],0.47 (0.27-0.82)^∗ fold
same,"fold change in phg expression, geometric mean (95% C.I.)",[2]; [6],0.12 (0.08-0.18)^∗ fold
same,"fold change in IL-1β gene expression, geometric mean (C.I.)",[3]; [7],0.89 (0.54-1.45) fold
same,"fold change in IL-6 gene expression, geometric mean (C.I.)",[3]; [7],0.74 (0.56-0.97)^∗ fold
same,"fold change in IL-8 gene expression, geometric mean (C.I.)",[3]; [7],1.13 (0.71-1.80) fold
same,"fold change in MMP-8 gene expression, geometric mean (C.I.)",[3]; [7],0.70 (0.62-0.79) fold
same,"fold change in TNF-α gene expression, geometric mean (C.I.)",[3]; [7],0.81 (0.50-1.33) fold
same,"fold change in IL-1β gene expression, geometric mean (C.I.)",[3]; [8],0.5 (0.38-0.65)^∗ fold
same,"fold change in IL-6 gene expression, geometric mean (C.I.)",[3]; [8],0.33 (0.12-0.88)^∗ fold
same,"fold change in IL-8 gene expression, geometric mean (C.I.)",[3]; [8],0.03 (0.02-0.05)^∗ fold
same,"fold change in MMP-8 gene expression, geometric mean (C.I.)",[3]; [8],0.78 (0.38-1.61) fold
same,"fold change in TNF-α gene expression, geometric mean (C.I.)",[3]; [8],0.39 (0.23-0.66)^∗ fold
same,downregulation of IL-1β gene expression,[3]; substrate 1 M,2 fold
same,downregulation of IL-6 gene expression,[3]; substrate 1 M,3 fold
same,downregulation of TNF-α gene expression,[3]; substrate 1 M,2.5 fold
